# Test results taken from patent US20260035367A1 (Celgene Corporation, priority 2021, published 2026).
# Where two headings read alike, the source gives them in different places.
# Tests used:
# [1] = target: T1, Recombinant human PKC-theta (His-tagged 362-706) (Homo sapiens, UniProt Q04759); experiment: PKC-theta inhibition assay (HTRF KinEASE kit); assay type: biochemical; conditions: ATP 6.5 μM, STK substrate 525 nM
# T1 construct: Recombinant human PKC-theta (His-tagged 362-706); His
# Summary of the method: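 IC50 values were from 4-parameter logistic fits of percent inhibition, based on acceptor/donor HTRF ratios over 10 semi-log compound doses. Kinase reactions, started with substrate plus ATP, ran 30 min at 25 °C in buffer supplemented with 10 mM MgCl2, 1 mM DTT and 0.1% Tween 20; detection lasted 2 h.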
# [2] = target: T2, Recombinant human PKC-delta (His-tagged 345-676) (Homo sapiens, UniProt Q05655); experiment: PKC-delta inhibition assay (HTRF KinEASE kit); assay type: biochemical; conditions: ratio, PKC-theta vs PKC-delta HTRF; for PKC-theta/PKC-delta selectivity (binned): binned A to G
# T2 construct: PKC-delta (His-tagged 345-676); His
# Description: PKC-theta and PKC-delta biochemical activities were measured using the PKC-theta HTRF KinEASEkit kit, according to manufacturer's instructions (Cisbio, catalogue number 61ST1PEJ). Briefly, the kinase buffer component of the kit was supplemented with 10 mM MgCl2, 1 mM DTT and 0.1% Tween 20. […] The streptavidin_XL665 and STK antibody-cryptate detection reagents were mixed according to the manufacturer's instructions. Test compounds were diluted in DMSO in a series of 10 semi-log step doses; 10 nL of each compound dose were dispensed in 384 well plates. […] The reaction was started by addition of the substrate and ATP and incubated at 25° C. for 30 minutes or 20 minutes for the PKC-theta and PKC-delta assays, respectively. The detection reagents were added, and the plate was incubated in the dark for 2 hours. […] The ratio of acceptor and donor emission signals was calculated for each well.
# [3] = system: IL-2 secretion by human effector memory T cells (TEM); experiment: Effector memory T cells IL-2 release assay (CD3/CD28 stimulation, HTRF IL-2 detection); assay type: cell-based; conditions: Homo sapiens, T-cell, 24 h
# Summary of the method: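 IL-2 released into the supernatant was quantified by HTRF after 24 h at 37 °C in 5% CO2. The cells were stimulated primary human TEM from donor buffy coats, treated with a 10-point semi-log compound series (0.1% DMSO final, triplicates).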
# [4] = binned A to H, read-out: PKC-theta HTRF pIC50 (binned) (converted)
# [5] = read-out: PKC-theta HTRF pIC50 (converted)
# [6] = binned A to G, read-out: PKC-theta IL2 pIC50 (binned) (converted)
# [7] = read-out: PKC-theta IL2 pIC50 (converted)
# T2 sequence (Q05655 345-676): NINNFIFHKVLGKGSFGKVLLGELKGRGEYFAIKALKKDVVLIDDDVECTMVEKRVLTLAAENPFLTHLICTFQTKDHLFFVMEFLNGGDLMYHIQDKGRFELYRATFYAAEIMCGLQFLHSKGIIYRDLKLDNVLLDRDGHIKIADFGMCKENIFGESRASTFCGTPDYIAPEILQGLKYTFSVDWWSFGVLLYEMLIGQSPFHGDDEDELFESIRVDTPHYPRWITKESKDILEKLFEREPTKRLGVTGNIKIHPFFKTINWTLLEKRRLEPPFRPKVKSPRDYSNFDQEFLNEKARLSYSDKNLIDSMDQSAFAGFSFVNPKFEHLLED
# T1 sequence (Q04759 362-706): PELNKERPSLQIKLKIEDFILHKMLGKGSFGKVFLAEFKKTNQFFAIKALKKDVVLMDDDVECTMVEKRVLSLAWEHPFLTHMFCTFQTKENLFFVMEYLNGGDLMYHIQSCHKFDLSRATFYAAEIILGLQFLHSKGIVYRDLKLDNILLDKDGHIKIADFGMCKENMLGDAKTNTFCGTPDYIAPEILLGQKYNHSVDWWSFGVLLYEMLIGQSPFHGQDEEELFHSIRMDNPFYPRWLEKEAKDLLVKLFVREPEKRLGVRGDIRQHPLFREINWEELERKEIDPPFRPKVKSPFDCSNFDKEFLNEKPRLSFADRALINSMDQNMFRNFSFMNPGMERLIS
Compound,"IC50 [1, 4] [nM]","IC50 [1, 5] [nM]",PKC-theta/PKC-delta selectivity [2],PKC-theta/PKC-delta selectivity (binned) [2],"IC50 [3, 6] [nM]","IC50 [3, 7] [nM]"
CN1CCN(c2cc(C(F)(F)F)cc(-c3ccnc4c3C(C)(C)C(=O)N4)n2)CC1 [Example 99],10 to 31.6,31.6,22,C (a ratio of between 20 and 30),316 to 1000,794
C[C@@H]1CNC[C@H](C)N1c1cc(C(F)(F)F)cc(-c2ccnc3c2C(C)(C)C(=O)N3)n1 [Example 179],3.16 to 10,6.31,20,D (a ratio of between 10 and 20),100 to 316,200
CCC1C(=O)Nc2nccc(-c3cccc(N4CCNCC4)c3)c21 (stereo not drawn) [Example 21],316 to 1000,316,1,F (a ratio of between 1 and 5),316 to 1000,1000
C[C@@H]1CNCCN1c1cc(C(F)(F)F)cc(-c2c(F)cnc3c2C(C)(C)C(=O)N3)n1 [Example 156],10 to 31.6,12.6,12,D (a ratio of between 10 and 20),100 to 316,126
CC(F)(F)c1cc(-c2c(F)cnc3c2C(C)(C)C(=O)N3)nc(N2CCNCC2)c1 [Example 174],31.6 to 100,31.6,10,D (a ratio of between 10 and 20),100 to 316,316
O=c1[nH]c2nccc(-c3cc(N4CCNCC4)ccc3F)c2[nH]1 [Example 15],316 to 1000,501,3,F (a ratio of between 1 and 5),> 1000,10000
C[C@H]1CCN(c2cc(C(F)(F)F)cc(-c3ccnc4c3C(C)(C)C(=O)N4)n2)CCN1 [Example 183],3.16 to 10,6.31,25,C (a ratio of between 20 and 30),100 to 316,126
CC[C@H]1CN(c2cccc(-c3ccnc4c3C(C)(CC)C(=O)N4)n2)CCN1 (stereo partly drawn) [Example 148],10 to 31.6,20,3,F (a ratio of between 1 and 5),100 to 316,158
O=C1Nc2nccc(-c3cc(F)cc(N4CCNCC4)c3)c2C12CCCC2 [Example 36],10 to 31.6,20,1,F (a ratio of between 1 and 5),100 to 316,251
"C[C@H]1CNCCN1c1cc(Cl)cc(-c2ccnc3c2[C@](C)(O)C(=O)N3)n1 (single isomer, unassigned) [Example 104]",3.16 to 10,5.01,11,D (a ratio of between 10 and 20),100 to 316,126
CN(C)Cc1cccc(-c2ccnc3[nH]c(=O)[nH]c23)c1 [Example 3],316 to 1000,794,1,F (a ratio of between 1 and 5),> 1000,5010
